According to the CheMixHub ionic liquid set:

Assay: xn = mol fraction of the nth substance listed

CCCC[P+](CCCC)(CCCC)CCCC.F[B-](F)(F)F + CC#N
viscosity [mPa·s], 100 kPa
Details	293.15 K	298.15 K	303.15 K	308.15 K	313.15 K	318.15 K
x1 = 0.0005293	–	0.347	–	–	–	–
x1 = 0.0007957	–	0.35	–	–	–	–
x1 = 0.001066	–	0.353	–	–	–	–
x1 = 0.001332	–	0.356	–	–	–	–
x1 = 0.001602	–	0.36	–	–	–	–
x1 = 0.001872	–	0.363	–	–	–	–
x1 = 0.004186	0.373	0.356	0.341	0.326	0.313	0.3
x1 = 0.0082	0.395	0.376	0.359	0.343	0.329	0.315
x1 = 0.01203	0.415	0.395	0.376	0.359	0.344	0.329
x1 = 0.01623	0.439	0.417	0.398	0.378	0.362	0.346
x1 = 0.01997	0.462	0.439	0.417	0.397	0.379	0.362
x1 = 0.02402	0.489	0.463	0.441	0.417	0.399	0.38
x1 = 0.02784	0.514	0.485	0.459	0.438	0.417	0.398
x1 = 0.03177	0.539	0.512	0.484	0.459	0.437	0.416
x1 = 0.03555	0.565	0.533	0.505	0.479	0.456	0.434
x1 = 0.03928	0.597	0.565	0.533	0.505	0.48	0.456

CC(=O)[O-].[NH4+] + CC(=O)[O-].CC[n+]1ccn(C)c1
101 kPa
Details	electrical conductivity [S/m]	viscosity [mPa·s]
298.15 K, x1 = 0.4491	0.0734	1020
308.15 K, x1 = 0.328	0.215	273
308.15 K, x1 = 0.4491	0.148	458
313.15 K, x1 = 0.0999	0.494	76.2
313.15 K, x1 = 0.1703	0.41	101.3
313.15 K, x1 = 0.328	0.286	197
318.15 K, x1 = 0.2498	0.449	106.6
318.15 K, x1 = 0.328	0.371	144.6

C[P+](c1ccccc1)(c1ccccc1)c1ccccc1.[Br-] + OCC(O)CO + OCCO
298.2 K, 101 kPa
Details	viscosity [mPa·s]
x1 = 0.2, x2 = 0	121
x1 = 0.2, x2 = 0.4	455
x1 = 0.2, x2 = 0.8	1894

CCOC(C)(C)C + CCO + CCOS(=O)(=O)[O-].CC[n+]1ccn(C)c1
298.15 K, 101 kPa
Details	viscosity [mPa·s]
x2 = 0.1248, x1 = 0.0174	63
x2 = 0.1973, x1 = 0.0324	46.3
x2 = 0.3162, x1 = 0.029	30.74
x2 = 0.395, x1 = 0.0475	21.09
x2 = 0.4866, x1 = 0.0465	14.2
x2 = 0.5653, x1 = 0.0501	9.77
x2 = 0.6539, x1 = 0.3132	0.878
x2 = 0.6567, x1 = 0.0845	5.13
x2 = 0.6872, x1 = 0.0848	4.39
x2 = 0.6916, x1 = 0.2368	1.352
x2 = 0.6923, x1 = 0.035	5.65
x2 = 0.7064, x1 = 0.1236	3.102
x2 = 0.7089, x1 = 0.2556	0.974
x2 = 0.7162, x1 = 0.1736	1.937
x2 = 0.7254, x1 = 0.0338	4.79
x2 = 0.7605, x1 = 0.0564	3.565
x2 = 0.7622, x1 = 0.1589	1.568
x2 = 0.7999, x1 = 0.077	2.401
x2 = 0.8182, x1 = 0.1407	1.208
x2 = 0.841, x1 = 0.072	1.86
x2 = 0.902, x1 = 0.0527	1.428

CCCCCC(=O)O.CCCCCC(=O)[O-].CC[NH+](CC)CCO + CCCC[n+]1ccn(C)c1.COP(=O)([O-])OC
101 kPa
Details	viscosity [mPa·s]
278.15 K, x1 = 0.2213	768
278.15 K, x1 = 0.6088	295.3
283.15 K, x1 = 0.0684	1280
283.15 K, x1 = 0.4995	242.5
283.15 K, x1 = 0.7258	185.3
288.15 K, x1 = 0.2213	362
288.15 K, x1 = 0.3088	259.7
288.15 K, x1 = 1	100.1
293.15 K, x1 = 0.4995	130.7
293.15 K, x1 = 0.8535	90.5
298.15 K, x1 = 0.2213	190.1
298.15 K, x1 = 0.3088	140.8
303.15 K, x1 = 0.2213	142.4
303.15 K, x1 = 0.6088	68.7
303.15 K, x1 = 1	47.5
308.15 K, x1 = 0.1429	147.9
313.15 K, x1 = 0.0684	157
313.15 K, x1 = 0.3088	65.2
318.15 K, x1 = 0.3966	43.87
318.15 K, x1 = 0.8535	29.04
323.15 K, x1 = 0.3966	35.8
328.15 K, x1 = 0.4995	26.14
328.15 K, x1 = 1	17.75
338.15 K, x1 = 0.0684	48.21
338.15 K, x1 = 0.2213	30.03
338.15 K, x1 = 1	12.81
343.15 K, x1 = 0.0684	39.73
343.15 K, x1 = 0.2213	25.3
343.15 K, x1 = 0.3088	20.61
348.15 K, x1 = 1	9.52
353.15 K, x1 = 0.2213	18.5
353.15 K, x1 = 0.4995	11.83
353.15 K, x1 = 0.7258	10.11
353.15 K, x1 = 1	8.28
358.15 K, x1 = 0.2213	16.02
358.15 K, x1 = 1	7.24
368.15 K, x1 = 0.3966	9.02
373.15 K, x1 = 0.2213	10.88
